We go through 29 compounds from PubChem BioAssay AID1408 (University of Pittsburgh Molecular Library Screening Center, 2008).

For the first test, the target named is Serine/threonine-protein kinase D1 (Homo sapiens) (UniProt Q15139). Put plainly: inhibition potency against human PKD1 – biochemical, fluorescence polarization, dose response (AID 1408).
Chain of Serine/threonine-protein kinase D1 (Homo sapiens) (Q15139 whole entry, looked up): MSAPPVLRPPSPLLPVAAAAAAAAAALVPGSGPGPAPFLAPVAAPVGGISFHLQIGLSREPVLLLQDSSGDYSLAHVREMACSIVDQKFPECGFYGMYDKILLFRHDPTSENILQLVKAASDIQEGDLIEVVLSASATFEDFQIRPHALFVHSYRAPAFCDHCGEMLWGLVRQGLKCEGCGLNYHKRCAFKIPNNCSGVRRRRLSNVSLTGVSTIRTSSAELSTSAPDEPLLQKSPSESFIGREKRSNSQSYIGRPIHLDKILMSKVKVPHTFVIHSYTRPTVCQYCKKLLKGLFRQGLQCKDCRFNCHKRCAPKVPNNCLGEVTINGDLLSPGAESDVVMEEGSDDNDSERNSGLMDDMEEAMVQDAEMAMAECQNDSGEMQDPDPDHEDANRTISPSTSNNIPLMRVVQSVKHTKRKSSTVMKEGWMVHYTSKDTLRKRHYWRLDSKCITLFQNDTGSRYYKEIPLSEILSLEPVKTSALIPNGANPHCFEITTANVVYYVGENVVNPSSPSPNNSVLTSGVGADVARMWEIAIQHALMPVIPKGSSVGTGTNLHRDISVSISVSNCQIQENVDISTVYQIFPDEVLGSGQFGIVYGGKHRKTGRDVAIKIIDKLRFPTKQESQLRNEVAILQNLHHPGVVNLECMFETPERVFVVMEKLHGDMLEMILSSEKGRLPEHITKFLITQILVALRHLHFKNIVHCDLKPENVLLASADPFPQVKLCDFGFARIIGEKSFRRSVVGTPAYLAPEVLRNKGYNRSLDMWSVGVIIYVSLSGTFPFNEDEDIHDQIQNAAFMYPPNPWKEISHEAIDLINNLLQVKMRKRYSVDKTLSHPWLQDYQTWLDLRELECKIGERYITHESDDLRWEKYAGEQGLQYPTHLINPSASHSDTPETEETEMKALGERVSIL
Settings: not given
In the case of `Clc1cncc(Cl)c1N/N=C/c1ccncc1`, the IC50 (in general, the concentration needed to halve the response being measured) is 9.61 µM.

Turning to `C/C(=N\Nc1ncc(Cl)cc1Cl)c1ccccn1`, the IC50 was 9.31 µM.

Staying with this test, now noted: inhibition, at 50 µM, stronger effect = higher value.
On to `Cc1c(C#N)c(N)nc(Cl)c1C#N`, for which the inhibition – broadly, the drop in the measured response relative to a control, in per cent – came to 5.41%.

With `O=[N+]([O-])c1ccc(Nc2c3ccccc3nc3ccccc23)cc1`, the inhibition was -1.2%. Consider `Clc1cncc(Cl)c1N/N=C/c1ccncc1`, for which the inhibition was determined as 83.8%.

As to `CCC1=NNc2cccc3c(OC)ccc1c23`, the inhibition was 67%.

As to `CCOC(=O)c1sc(=NC(=O)CCS(=O)(=O)c2ccccc2)n(C)c1C`, the inhibition was -2.41%. Same read-out and setting: to `Cc1cc(NCCCN)nc(-c2ccccc2O)n1` belongs 94.4%. The same measure, in the same setting: to `COc1ccc(Cn2c(=O)[nH]c3cc(C(=O)NC4CCCC4)ccc3c2=O)cc1` belongs 14.8%. Same read-out and setting: the value for `O=C(Nc1ccccc1C(=O)N1CCCC1)C1COc2ccccc2O1` (stereo unspecified) was 1.87%; that for `CC1Cc2ccccc2N1c1ncnc(N)c1[N+](=O)[O-]` (stereo unspecified) was 76.8%; that for `NC(N)=NC(=O)c1nc(Cl)c(N)nc1N` was 96.6%. For the compound `O=C(CSc1ccc2nnc(-c3cccnc3)n2n1)c1ccccc1`, the inhibition is -0.442%. As for `O=C1NCCCc2c1oc1ccc(O)cc21`, the inhibition turned out to be 101%.

Regarding `Nc1nc2ccc([N+](=O)[O-])c(N)c2s1`, the inhibition turned out to be 95.9%. Still for that read-out and setting: to `COC(=O)c1c(NC(=O)C2C3CCC(C3)C2C(=O)O)sc2c1CCCCC2` (stereo unspecified) belongs 7.89%; to `NC(=O)c1cn(C2OC(CO)C(O)C2O)c2ncnc(N)c12` (stereo unspecified), 102%; to `CCC(=O)Nc1c2c(nn1-c1ccccc1C)CSC2`, -1.23%. As to `CSc1ccccc1C(=O)NCc1ccc(F)cc1`, the inhibition was 1.94%. Take `O=C(NNC1=Nc2cccc3cccc1c23)c1ccc(Br)cc1`: the inhibition is -3.67%. For the compound `CC(=O)Oc1cc(OC(C)=O)c2c(C)cc(=O)oc2c1`, the inhibition turned out to be 29%. On to `O=C1CSCN1c1cc(Cl)ccc1Cl`, for which the inhibition was determined as 1.32%.

For `O=C(CSc1ccncc1)Nc1ccc2ccccc2c1`, the inhibition is -4.61%.

As for `CCCc1cc(=O)[nH]c(SCCCCN2C(=O)c3ccccc3C2=O)n1`, the inhibition stood at 0.534%. The same measure, in the same setting: the value for `Cn1cccc1C(=O)NC(=O)COC(=O)c1cc(S(=O)(=O)N2CCCCC2)ccc1Cl` was -3.91%; that for `COc1ccc(CNC(=O)C2Cc3ccccc3CN2C(=O)c2ccco2)cc1` (stereo unspecified) was 9.09%. With `O=C(Nc1ccc(CN2CCOCC2)cc1)c1ccc(-c2cccc(Cl)c2)o1`, the inhibition is 96.2%.

In the case of `Cc1cc(NC(=O)CCC(=O)N(Cc2ccco2)C(C(=O)NCC2CCCO2)c2ccncc2)no1` (stereo unspecified), the inhibition is -0.875%. In the case of `C/C(=N\Nc1ncc(Cl)cc1Cl)c1ccccn1`, the inhibition stood at 65.6%. Still for that read-out and setting: the value for `O=C(O)c1cc(C(=O)C2CCCCC2)c[nH]1` was 3.08%.

For the compound `CS(=O)(=O)N1CCN(c2ccccc2NC(=O)c2ccc(Br)o2)CC1`, the inhibition turned out to be 15.2%.
